The values that follow come from patent US9504675B2, “Alpha-ketoheterocycles and methods of making and using” (The Scripps Research Institute, priority 2011, dated 2016).

This test deals with T1, recombinant rat FAAH (rFAAH) (Rattus norvegicus, UniProt P97612).
T1 construct: The truncated rat FAAH (rFAAH) was expressed in E. coli and purified; made in house; host or cells: Escherichia coli
T1 sequence (P97612 30-579 limits assumed): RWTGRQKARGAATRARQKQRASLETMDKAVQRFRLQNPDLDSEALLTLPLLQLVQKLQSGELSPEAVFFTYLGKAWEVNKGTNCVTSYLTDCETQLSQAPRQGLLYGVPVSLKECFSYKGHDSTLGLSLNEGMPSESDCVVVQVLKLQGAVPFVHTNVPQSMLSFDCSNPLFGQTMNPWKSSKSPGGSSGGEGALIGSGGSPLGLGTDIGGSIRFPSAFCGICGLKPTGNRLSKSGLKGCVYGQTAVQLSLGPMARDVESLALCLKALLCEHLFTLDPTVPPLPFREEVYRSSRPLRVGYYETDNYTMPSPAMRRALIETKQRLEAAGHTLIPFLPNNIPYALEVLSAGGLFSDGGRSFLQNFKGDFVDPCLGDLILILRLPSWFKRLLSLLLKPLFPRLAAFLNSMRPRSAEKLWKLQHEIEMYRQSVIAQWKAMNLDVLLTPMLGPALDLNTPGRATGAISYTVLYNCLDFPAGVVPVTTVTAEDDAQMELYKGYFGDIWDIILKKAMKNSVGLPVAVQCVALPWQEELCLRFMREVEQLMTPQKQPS
Put plainly: Enzyme assay: inhibition of purified recombinant rat FAAH, 14C-oleamide hydrolysis, Ki by Dixon plot. The test is classed as biochemical. As for the experimental part: Enzyme assays were performed at 20-23° C. with purified recombinant rat FAAH expressed in Escherichia coli or with solubilized COS-7 membrane extracts from cells transiently transfected with human FAAH cDNA (where specifically indicated) in a buffer of 125 mM Tris/1 mM EDTA/0.2% glycerol/0.02% Triton X-100/0.4 mM Hepes, pH 9.0.
^14C-labeled oleamide was prepared from ^14C-labeled oleic acid. The truncated rat FAAH (rFAAH) was expressed in E. coli and purified. The purified recombinant rFAAH was used in the inhibition assays unless otherwise indicated. The full-length human FAAH (hFAAH) was expressed in COS-7 cells as described, and the lysate of hFAAH-transfected COS-7 cells was used in the inhibition assays where explicitly indicated.
The inhibition assays were performed as follows. […] The enzyme reaction was terminated by transferring 20 μL of the reaction mixture to 500 μL of 0.1 N HCl at three different time points. The ^14C-labeled oleamide (substrate) and oleic acid (product) were extracted with EtOAc and analyzed by TLC as detailed. The Ki of the inhibitor was calculated using a Dixon plot as described (standard deviations are provided in the Supporting Information tables).

Setting [1] is: Table 2, (S)-enantiomer, 1,2,3,4-tetrahydronaphthalene C2 acyl side chain.
Where [2] appears, read: Table 3, (R)-enantiomer, indane C2 acyl side chain.
The mark [3] stands for this setting: Table 2, (R)-enantiomer, 1,2,3,4-tetrahydronaphthalene C2 acyl side chain.
Setting [4] is: Table 4, (S)-enantiomer, additional FAAH inhibitors.

The Ki is the dissociation constant of the complex between target and ligand, obtained from inhibition or displacement. Turning to `N#Cc1cnc(C(=O)C2CCc3cc(OCc4ccccc4)ccc3C2)o1` (single isomer, unassigned) [(S)-17, 2-(6-(Benzyloxy)-1,2,3,4-tetrahydronaphthalene-2-carbonyl)oxazole-5-carbonitrile], the Ki under setting [1] came out at 3.2 nM.
On the same count and under the same terms, the figure for `N#Cc1cnc(C(=O)C2CCc3cc(Oc4ccccc4)ccc3C2)o1` (single isomer, unassigned) [(S)-11, 2-(6-Phenoxy-1,2,3,4-tetrahydronaphthalene-2-carbonyl)oxazole-5-carbonitrile] is 1.3 nM.
On to `O=C(O)c1cccc(-c2cnc(C(=O)C3Cc4ccc(OCc5ccccc5)cc4C3)o2)n1` (single isomer, unassigned) [(R)-33, 6-(2-(5-(Benzyloxy)indane-2-carbonyl)oxazol-5-yl)picolinic acid], for which, under setting [2], the Ki came out at 660 nM.
For the compound `COC(=O)c1cccc(-c2cnc(C(=O)C3Cc4ccc(-c5ccccc5)cc4C3)o2)n1` (racemic) [Compound 24, Methyl 6-[2-(5-Phenylindane-2-carbonyl)oxazol-5-yl]pyridine-2-carboxylate], the Ki (Table 3, racemate (enantiomers not separable), indane C2 acyl side chain) was found to be 6.2 nM.
For the compound `O=C(c1ncco1)C1CCc2cc(-c3ccccc3)ccc2C1` (single isomer, unassigned) [(R)-3, Oxazol-2-yl(6-phenyl-1,2,3,4-tetrahydronaphthalen-2-yl)methanone], under setting [3], the Ki was found to be 460 nM.
As to `O=C(c1ncco1)C1Cc2ccc(-c3ccccc3)cc2C1` (single isomer, unassigned) [(S)-22, Oxazol-2-yl(5-phenylindan-2-yl)methanone], the Ki (Table 3, tentatively assigned (S)-enantiomer, indane C2 acyl side chain) is 27 nM.
Take `COC(=O)c1cnc(C(=O)C2CCc3cc(OCc4ccccc4)ccc3C2)o1` (single isomer, unassigned) [(S)-16, Methyl 2-(6-(Benzyloxy)-1,2,3,4-tetrahydronaphthalene-2-carbonyl)oxazole-5-carboxylate]: the Ki under setting [1] turned out to be 2.9 nM.
Still for that read-out and setting: the figure for `O=C(c1ncco1)C1CCc2cc(Oc3ccccc3)ccc2C1` (single isomer, unassigned) [(S)-9, Oxazol-2-yl(6-phenoxy-1,2,3,4-tetrahydronaphthalen-2-yl)methanone] is 2.2 nM.
Turning to `COC(=O)c1nnc(C(=O)C2CCc3cc(Oc4ccccc4)ccc3C2)o1` (single isomer, unassigned) [(S)-35, Methyl 5-(6-Phenoxy-1,2,3,4-tetrahydronaphthalene-2-carbonyl)-[1,3,4]oxadiazole-2-carboxylate], the Ki under setting [4] amounted to 1.5 nM.
As to `COC(=O)c1cccc(-c2cnc(C(=O)C3CCc4cc(Oc5ccccc5)ccc4C3)o2)n1` (single isomer, unassigned) [(R)-13, Methyl 6-(2-(6-Phenoxy-1,2,3,4-tetrahydronaphthalene-2-carbonyl)oxazol-5-yl)picolinate], the Ki under setting [3] was determined as 870 nM.
Regarding `O=C(c1ncc(I)o1)C1CCc2cc(OCc3ccccc3)ccc2C1` (stereo not drawn) [Compound 21, (6-(Benzyloxy)-1,2,3,4-tetrahydronaphthalen-2-yl)(5-iodooxazol-2-yl)methanone], the “potency of more active (S)-enantiomer over (R)-enantiomer” value (ratio of FAAH inhibition between enantiomers) is listed as “ca. 200 fold”.
For `O=C(c1ncc(-c2ccccn2)o1)C1CCc2ccccc2C1` (single isomer, unassigned) [(S)-38, (5-(Pyridin-2-yl)oxazol-2-yl)(1,2,3,4-tetrahydronaphthalen-2-yl)methanone], under setting [4], the Ki was determined as 430 nM.
Take `O=C(c1ncc(-c2ccccn2)o1)C1Cc2ccc(-c3ccccc3)cc2C1` (single isomer, unassigned) [(R)-23, (5-Phenylindan-2-yl)-(5-(pyridin-2-yl)oxazol-2-yl)methanone]: under setting [2], the Ki is 600 nM.
Regarding `O=C(c1ncco1)C1CCc2ccccc2C1` (single isomer, unassigned) [(R)-37, Oxazol-2-yl(1,2,3,4-tetrahydronaphthalen-2-yl)methanone], the Ki (Table 4, (R)-enantiomer, additional FAAH inhibitors) is 12000 nM.
For `O=C(O)c1cccc(-c2cnc(C(=O)C3CCc4cc(Oc5ccccc5)ccc4C3)o2)n1` (single isomer, unassigned) [(S)-14, 6-(2-(6-Phenoxy-1,2,3,4-tetrahydronaphthalene-2-carbonyl)oxazol-5-yl)picolinic acid], under setting [1], the Ki turned out to be 25 nM.
